Key:
Enterococcus faecalis = experiment: Agarose gel diffusion test; assay type: cell-based; details: agar diffusion, this experiment
Description: An adaptation of the agarose gel diffusion test was tested and validated for dental cements. The analysis was performed using the plaque assay. In the case of a test on samples of various concentrations, the ICM can be estimated using a software available on an on-line platform developed by Bonev in 2008 (http://agardiffusion.com) (Principles of assessing bacterial susceptibility to antibiotics using the agar diffusion method J. Antimic. Chemoth., 61 12951301).
For this experiment, liposomes and disinfecting fillers were produced as described in 8.1 and 7.6 a.
3 mm circular wells were punched using a disposable biopsy needle into Mueller-Hinton agar. The agar was then homogeneously inoculated with 100 μL of a solution of Enterococcus faecalis adjusted to a concentration of 0.5 MacFarland. Bio Root™ cement was then prepared (500 mg powder+250 μL liquid+/−35 μL CEM CHX 0918-001). The wells were then filled with cement using a pipetman for viscous solutions. The agar plates were then incubated at 37° C. under aerobic conditions for 24 hours. The area of growth inhibition was then measured using a ruler (FIG. 26).
To measure the effect of the prolonged release of antimicrobial agent, agar plates were prepared as above but without being inoculated with E. faecalis. […] The plates were then incubated for 24 hours and the lysis areas measured with a ruler.

Gram+ bacteria = details: cited from earlier work
Gram-bacteria = details: cited from earlier work

| Structure (SMILES) | calculated MIC (Enterococcus faecalis) [µg/mL] | MIC (concentration corresponding to the elimination of 90% of the bacteria) (Gram+ bacteria) [µg/mL] | MIC (concentration corresponding to the elimination of 90% of the bacteria) (Gram-bacteria) [µg/mL] |
| --- | --- | --- | --- |
| N=C(NCCCCCCNC(=N)NC(=N)Nc1ccc(Cl)cc1)NC(=N)Nc1ccc(Cl)cc1.O=C(O)[C@H](O)[C@@H](O)[C@H](O)[C@H](O)CO.O=C(O)[C@H](O)[C@@H](O)[C@H](O)[C@H](O)CO [chlorhexidine digluconate] | 15.5 | – | – |
| [H]/N=C(\N/C(=N/[H])NCCCCCCNC(=N)NC(=N)Nc1ccc(Cl)cc1)Nc1ccc(Cl)cc1 [chlorhexidine] | – | 22 | 40 |
